# Measurements published in ChEMBL document CHEMBL1147116 (Antimicrob Agents Chemother, 2007).
# What was measured:
# [1] = tested on: Streptococcus pneumoniae; experiment: Bactericidal activity against Streptococcus pneumoniae ATCC 49619 at fAUC/MIC of 144 after 24 to 96 hrs in pharmacodynamic model
# [2] = tested on: Streptococcus pneumoniae; experiment: Susceptibility of Streptococcus pneumoniae ATCC 49619 by microdilution method; type: functional
# [3] = tested on: Streptococcus pneumoniae; experiment: Bactericidal activity against Streptococcus pneumoniae ATCC 49619 with Parc S79Y mutation and gyrA S81F mutation at fAUC/MIC of 35 after 72 hrs in pharmacodynamic model; details: ATCC 49619, 72 h
# [4] = tested on: Streptococcus pneumoniae; experiment: Bactericidal activity against Streptococcus pneumoniae ATCC 49619 with S79Y Parc mutation and S81F gyrA mutation at fAUC/MIC of 60 after 96 hrs in pharmacodynamic model; details: ATCC 49619, 96 h
# [5] = tested on: Streptococcus pneumoniae; experiment: fAUC/MIC ratio of Streptococcus pneumoniae ATCC 49619 at 175 mg
# [6] = tested on: Streptococcus pneumoniae; experiment: Bactericidal activity against Streptococcus pneumoniae ATCC 49619 at fAUC/MIC of 60 after 24 hrs in pharmacodynamic model; details: ATCC 49619, 24 h
# [7] = tested on: Streptococcus pneumoniae; experiment: Susceptibility of Streptococcus pneumoniae BSP-2443 by microdilution method; type: functional; details: BSP2443
# [8] = Half life at 400 mg/24 hrs regimen in vitro PK model; type: ADME
# [9] = tested on: Streptococcus pneumoniae; experiment: Bactericidal activity against Streptococcus pneumoniae ATCC 49619 with Parc S79Y mutation and gyrA S81F mutation at fAUC/MIC of 35 after 48 hrs in pharmacodynamic model; details: ATCC 49619, 48 h
# [10] = tested on: Streptococcus pneumoniae; experiment: Bactericidal activity against Streptococcus pneumoniae ATCC 49619 with parC S79Y mutation at fAUC/MIC of 60 after 72 hrs in pharmacodynamic model; details: ATCC 49619, 72 h
# [11] = tested on: Streptococcus pneumoniae; experiment: Bactericidal activity against Streptococcus pneumoniae BSP-2443 at fAUC/MIC of 51 after 24 to 48 hrs in pharmacodynamic model; details: BSP2443
# [12] = tested on: Streptococcus pneumoniae; experiment: Bactericidal activity against Streptococcus pneumoniae BSP-2443 at fAUC/MIC of 62 after 24 to 96 hrs in pharmacodynamic model; details: BSP2443
# [13] = tested on: Streptococcus pneumoniae; experiment: Bactericidal activity against Streptococcus pneumoniae ATCC 49619 with Parc S79Y mutation and gyrA S81F mutation at fAUC/MIC of 35 after 96 hrs in pharmacodynamic model; details: ATCC 49619, 96 h
# [14] = Peak free concentration at 400 mg/24 hrs regimen in vitro PK model; type: ADME
# [15] = tested on: Streptococcus pneumoniae; experiment: Bactericidal activity against Streptococcus pneumoniae ATCC 49619 at fAUC/MIC of 67 after 24 to 96 hrs in pharmacodynamic model
# [16] = Peak free concentration at 150 mg/24 hrs regimen in vitro PK model; type: ADME
# [17] = Half life at 200 mg/24 hrs regimen in vitro PK model; type: ADME
# [18] = tested on: Streptococcus pneumoniae; experiment: Bactericidal activity against Streptococcus pneumoniae ATCC 49619 with Parc S79Y mutation at fAUC/MIC of 35 after 24 hrs in pharmacodynamic model; details: ATCC 49619, 24 h
# [19] = Peak free concentration at 175 mg/24 hrs regimen in vitro PK model; type: ADME
# [20] = Half life at 100 mg/24 hrs regimen in vitro PK model; type: ADME
# [21] = tested on: Streptococcus pneumoniae; experiment: Bactericidal activity against Streptococcus pneumoniae BSP-2443 with parC S52G, N91D mutation and gyrA S114G mutation at fAUC/MIC of 51 after 96 hrs in pharmacodynamic model; details: BSP2443, 96 h
# [22] = tested on: Streptococcus pneumoniae; experiment: fAUC/MIC ratio of Streptococcus pneumoniae BSP-2443 at 198 mg
# [23] = tested on: Streptococcus pneumoniae; experiment: Bactericidal activity against Streptococcus pneumoniae ATCC 49619 at fAUC/MIC of 66 after 24 to 96 hrs in pharmacodynamic model
# [24] = tested on: Streptococcus pneumoniae; experiment: fAUC/MIC ratio of Streptococcus pneumoniae BSP-2443 at 235 mg
# [25] = Peak free concentration at 100 mg/24 hrs regimen in vitro PK model; type: ADME
# [26] = Peak free concentration at 200 mg/24 hrs regimen in vitro PK model; type: ADME
# [27] = Half life at 175 mg/24 hrs regimen in vitro PK model; type: ADME
# [28] = tested on: Streptococcus pneumoniae; experiment: Bactericidal activity against Streptococcus pneumoniae ATCC 49619 at fAUC/MIC of 60 after 48 hrs in pharmacodynamic model; details: ATCC 49619, 48 h
# [29] = tested on: Streptococcus pneumoniae; experiment: fAUC/MIC ratio of Streptococcus pneumoniae ATCC 49619 at 400 mg
# [30] = tested on: Streptococcus pneumoniae; experiment: Bactericidal activity against Streptococcus pneumoniae BSP-2443 with parC S52G, N91D mutation at fAUC/MIC of 51 after 72 hrs in pharmacodynamic model; details: BSP2443, 72 h
# [31] = Half life at 150 mg/24 hrs regimen in vitro PK model; type: ADME
# [32] = tested on: Streptococcus pneumoniae; experiment: fAUC/MIC ratio of Streptococcus pneumoniae ATCC 49619 at 100 mg
# [33] = tested on: Streptococcus pneumoniae; experiment: fAUC/MIC ratio of Streptococcus pneumoniae ATCC 49619 at 150 mg
# [34] = tested on: Streptococcus pneumoniae; experiment: fAUC/MIC ratio of Streptococcus pneumoniae ATCC 49619 at 200 mg
# [35] = tested on: Streptococcus pneumoniae; experiment: Bactericidal activity against Streptococcus pneumoniae ATCC 49619 at fAUC/MIC of 146 after 24 to 96 hrs in pharmacodynamic model
# [36] = tested on: Streptococcus pneumoniae; experiment: Bactericidal activity against Streptococcus pneumoniae ATCC 49619 at fAUC/MIC of 50.5 after 24 to 96 hrs in pharmacodynamic model
# [37] = tested on: Streptococcus pneumoniae; experiment: Bactericidal activity against Streptococcus pneumoniae BSP-2443 at fAUC/MIC of 60.2 after 24 to 96 hrs in pharmacodynamic model; details: BSP2443
# [38] = Peak free concentration at 75 mg/24 hrs regimen in vitro PK model; type: ADME
# [39] = Peak free concentration at 250 mg/24 hrs regimen in vitro PK model; type: ADME
# [40] = tested on: Streptococcus pneumoniae; experiment: Bactericidal activity against Streptococcus pneumoniae ATCC 49619 with parC S79Y mutation at fAUC/MIC of 37 after 72 hrs in pharmacodynamic model; details: ATCC 49619, 72 h
# [41] = tested on: Streptococcus pneumoniae; experiment: fAUC/MIC ratio of Streptococcus pneumoniae BSP-2443 at 75 mg
# [42] = tested on: Streptococcus pneumoniae; experiment: Bactericidal activity against Streptococcus pneumoniae ATCC 49619 with parC S79Y mutation at fAUC/MIC of 37 after 96 hrs in pharmacodynamic model; details: ATCC 49619, 96 h
# [43] = tested on: Streptococcus pneumoniae; experiment: fAUC/MIC ratio of Streptococcus pneumoniae ATCC 49610 at 250 mg
# [44] = tested on: Streptococcus pneumoniae; experiment: Bactericidal activity against Streptococcus pneumoniae BSP-2443 at fAUC/MIC of 34 after 24 to 48 hrs in pharmacodynamic model; details: BSP2443
# [45] = tested on: Streptococcus pneumoniae; experiment: Bactericidal activity against Streptococcus pneumoniae BSP-2443 with parC S79Y, S52G, N91D mutation and gyrA S114G mutation at fAUC/MIC of 34 after 72 to 96 hrs in pharmacodynamic model; details: BSP2443
# [46] = tested on: Streptococcus pneumoniae; experiment: Bactericidal activity against Streptococcus pneumoniae BSP-2443 at fAUC/MIC of 51.3 after 24 to 96 hrs in pharmacodynamic model; details: BSP2443
# [47] = tested on: Streptococcus pneumoniae; experiment: Bactericidal activity against Streptococcus pneumoniae ATCC 49619 at fAUC/MIC of 119 after 24 to 96 hrs in pharmacodynamic model
# [48] = Half life at 75 mg/24 hrs regimen in vitro PK model; type: ADME
# [49] = tested on: Streptococcus pneumoniae; experiment: fAUC/MIC ratio of Streptococcus pneumoniae ATCC 49610 at 50 mg
# [50] = tested on: Streptococcus pneumoniae; experiment: Bactericidal activity against Streptococcus pneumoniae ATCC 49619 at fAUC/MIC of 78 after 24 to 96 hrs in pharmacodynamic model
# [51] = tested on: Streptococcus pneumoniae; experiment: fAUC/MIC ratio of Streptococcus pneumoniae BSP-2443 at 100 mg
# [52] = Half life at 50 mg/24 hrs regimen in vitro PK model; type: ADME
# [53] = Half life at 250 mg/24 hrs regimen in vitro PK model; type: ADME
# [54] = tested on: Streptococcus pneumoniae; experiment: Bactericidal activity against Streptococcus pneumoniae ATCC 49619 at fAUC/MIC of 65.3 after 24 to 96 hrs in pharmacodynamic model
# [55] = Peak free concentration at 320 mg/24 hrs regimen in vitro PK model; type: ADME
# [56] = tested on: Streptococcus pneumoniae; experiment: fAUC/MIC ratio of Streptococcus pneumoniae ATCC 49610 at 75 mg
# [57] = tested on: Streptococcus pneumoniae; experiment: Bactericidal activity against Streptococcus pneumoniae ATCC 49619 at fAUC/MIC of 37 after 24 to 48 hrs in pharmacodynamic model
# [58] = tested on: Streptococcus pneumoniae; experiment: fAUC/MIC ratio of Streptococcus pneumoniae ATCC 49610 at 320 mg
# [59] = Peak free concentration at 50 mg/24 hrs regimen in vitro PK model; type: ADME
# [60] = Half life at 320 mg/24 hrs regimen in vitro PK model; type: ADME
# [61] = tested on: Streptococcus pneumoniae; experiment: fAUC/MIC ratio of Streptococcus pneumoniae BSP-2443 at 50 mg
compound,measurement,setting,value
COc1c(N2CCNC(C)C2)c(F)cc2c(=O)c(C(=O)O)cn(C3CC3)c12 (centres undefined) [GATIFLOXACIN],MIC,[1],0.19 µg/mL
same,MIC,[2],0.025 µg/mL
same,MIC,[3],6 µg/mL
same,MIC,[4],4 µg/mL
same,fAUC/MIC,[5],66
same,MIC,[6],0.25 µg/mL
same,MIC,[7],0.025 µg/mL
same,half-life,[8],8.01 h
same,MIC,[9],6 µg/mL
same,MIC,[10],0.75 µg/mL
same,MIC,[11],0.25 µg/mL
same,MIC,[12],0.25 µg/mL
same,MIC,[13],8 µg/mL
same,Activity,[14],2.79 µg/mL
same,MIC,[15],0.19 µg/mL
same,Activity,[16],1.13 µg/mL
same,half-life,[17],8.65 h
same,MIC,[18],0.38 µg/mL
same,Activity,[19],1.22 µg/mL
same,half-life,[20],7.65 h
same,MIC,[21],3 µg/mL
same,fAUC/MIC,[22],51
same,MIC,[23],0.19 µg/mL
same,fAUC/MIC,[24],62
same,Activity,[25],0.71 µg/mL
same,Activity,[26],1.38 µg/mL
same,half-life,[27],7.57 h
same,MIC,[28],0.25 µg/mL
same,fAUC/MIC,[29],144
same,MIC,[30],0.38 µg/mL
same,half-life,[31],8.16 h
same,fAUC/MIC,[32],35
same,fAUC/MIC,[33],60
same,fAUC/MIC,[34],67
CO/N=C1\CN(c2nc3c(cc2F)c(=O)c(C(=O)O)cn3C2CC2)CC1CN (centres undefined) [GEMIFLOXACIN],MIC,[35],0.03 µg/mL
same,MIC,[36],0.03 µg/mL
same,MIC,[37],0.03 µg/mL
same,Activity,[38],0.17 µg/mL
same,MIC,[2],0.025 µg/mL
same,Activity,[39],0.51 µg/mL
same,MIC,[40],0.25 µg/mL
same,MIC,[7],0.025 µg/mL
same,fAUC/MIC,[41],51.3
same,MIC,[42],0.25 µg/mL
same,fAUC/MIC,[43],119
same,MIC,[44],0.03 µg/mL
same,MIC,[45],0.125 µg/mL
same,MIC,[46],0.03 µg/mL
same,Activity,[16],0.31 µg/mL
same,MIC,[47],0.03 µg/mL
same,half-life,[48],7.19 h
same,fAUC/MIC,[49],37
same,MIC,[50],0.03 µg/mL
same,fAUC/MIC,[51],69.2
same,half-life,[20],8.22 h
same,half-life,[52],7.45 h
same,half-life,[53],7.22 h
same,MIC,[54],0.03 µg/mL
same,Activity,[55],0.62 µg/mL
same,fAUC/MIC,[56],50.5
same,MIC,[57],0.03 µg/mL
same,Activity,[25],0.23 µg/mL
same,fAUC/MIC,[58],146
same,half-life,[31],7.5 h
same,Activity,[59],0.12 µg/mL
same,fAUC/MIC,[32],65.3
same,half-life,[60],7.58 h
same,fAUC/MIC,[61],34
same,fAUC/MIC,[33],78
